Patent US11332477B2, “Nitrogen containing heterocycle substituted benzoxazine oxazolidinone compound and preparation method and use thereof” (INSTITUTE OF MATERIA MEDICA, CHINESE ACADEMY OF MEDICAL …, priority 2017, dated 2022)
In brackets after ≈: the same amount, converted by molar mass.

How the values were obtained:
[1] = tested on: clinically isolated 12525 strains (rifampicin- and isoniazid-resistant strains); assay: microbe, parasite or virus in culture; assay type: cell-based; details: Mycobacterium tuberculosis, read-out: MIC 12525
[2] = tested on: Linezolid-resistant strain; assay: microbe, parasite or virus in culture; assay type: cell-based; details: Mycobacterium tuberculosis, read-out: MIC Linezolid-resistant strain

Compound | MIC [1] | MIC [2]
CC(=O)NC[C@@H]1OC(=O)N2c3ccc(N4CCOCC4)cc3OC[C@@H]12 [Compound VII, reference compound] | 0.119 µg/mL (≈ 0.343 µM) | 21.6 µg/mL (≈ 62.2 µM)
CO[C@H]1/C=C/O[C@@]2(C)Oc3c(C)c(O)c4c(O)c(c(/C=N/N5CCN(C)CC5)c(O)c4c3C2=O)NC(=O)/C(C)=C\C=C\[C@H](C)[C@H](O)[C@@H](C)[C@@H](O)[C@@H](C)[C@H](OC(C)=O)[C@@H]1C [rifampicin] | 22.4 µg/mL (≈ 27.2 µM) | 0.073 µg/mL (≈ 0.0887 µM)
NNC(=O)c1ccncc1 [isoniazid] | > 40 µg/mL | 0.032 µg/mL (≈ 0.233 µM)
CC(=O)NC[C@@H]1OC(=O)N2c3cc(F)c(N4CCSCC4)cc3OC[C@@H]12 [Compound 4, N-(((3S,3aS)-8-Fluoro-1-oxo-7-thiomorpholino-3a,4-dihydro-1H,3H-benzo[b]oxazolo[3,4-d][1,4]oxazin-3-yl)methyl)acetamide] | < 0.016 µg/mL | 0.246 µg/mL (≈ 0.645 µM)
CC(=O)NC[C@H]1OC(=O)N2c3cc(F)c(N4CCSCC4)cc3OC[C@H]12 [Compound 28, N-(((3R,3aR)-8-Fluoro-1-oxo-7-thiomorpholino-3a,4-dihydro-1H,3H-benzo[b]oxazolo[3,4-d][1,4]oxazin-3-yl)methyl)acetamide] | 0.047 µg/mL (≈ 0.123 µM) | 3.02 µg/mL (≈ 7.91 µM)
CC(=O)NC[C@H]1CN(c2ccc(N3CCOCC3)c(F)c2)C(=O)O1 [Linezolid, reference compound] | 0.138 µg/mL (≈ 0.409 µM) | 4 µg/mL (≈ 11.9 µM)
CC(=O)NC[C@@H]1OC(=O)N2c3cc(F)c(N4CC[S+]([O-])CC4)cc3OC[C@@H]12 [Compound 23, N-(((3S,3aS)-8-Fluoro-1-oxo-7-(1-oxidothiomorpholino)-3a,4-dihydro-1H,3H-benzo[b]oxazolo[3,4-d][1,4]oxazin-3-yl)methyl)acetamide] | 0.053 µg/mL (≈ 0.133 µM) | –
